Source: patent publication US20190185461A1, “B[…] B2-RECEPTOR AGONIST ACTIVITY AND M3-RECEPTOR ANTAGONIST ACTIVITY AND MEDICAL USE THEREOF” (Sichuan Haisco Pharmaceutical Co., Ltd., priority 2015, published 2019)
pEC50, pIC50: −log10 of the molar value.

Key:
[1] = biological target: T1, human muscarine receptor M3 (hM3) (Homo sapiens, UniProt P20309); experiment: Inhibitory activity against human muscarine receptor M3 (aequorin luminescence, CHO cells, acetylcholine challenge); type: cell-based; conditions: IC50 for hM3 receptor, CHO cells stably expressing hM3 and apo-Aequorin; acetylcholine chloride 112.92 nM; luminescence over 20 seconds
T1 construct: host or cells: CHO cells
Protocol: CHO cells (PerkinElmer, ES-212-AF) that stably express human muscarine receptor M3 (hM3) and apo-Aequorin were cultured at 37° C., 5% CO2 in Ham's F12 media (Invitrogen 12500-062) containing 10% fetal bovine serum (FBS) (Gibico 10099-141), 400 μg/mL G418 (sigma G5013) and 250 μg/mL Zeocin (Invivogen ant-zn-5p), until a confluency of 90% to 100% was reached. Cells were separated by rinsing with PBS/5 mM EDTA, collected by centrifugation, re-suspended in phenol red-free Ham's F12 media (Invitrogen 12500-062) containing 0.1 BSA (BOVOGEN BSAS 100), and counted. The cell concentration was adjusted to 1×10^6 cells/ml. 15 ml of the cell suspension was added to a 50-ml centrifuge tube, to which Coelenterazine-h (Promega 52011) was added to a final concentration of 5 μM. The tube was wrapped with a tin foil to shade light, and incubated on a rotary shaker at 20° C. for 4 hours. The cells were diluted with a phenol red-free/0.1% BSA Ham's F12 medium to a final concentration of 5.0×10^5 cells/ml, placed on a rotary shaker in low speed rotation, and incubated at room temperature for at least 1 hour. The compounds of the Examples were formulated with DMSO into 10 mM stock solutions, diluted in series with a phenol red-free/0.1% BSA Ham's F12 media (log(M): −7, −8, −9, −10, −11), and added to a 96-well plate at 50 μl/well. 50 μl cell suspension was further added to each well (25,000 cells/well) and incubated for 15 min at room temperature. The 96-well plate was placed in a microplate reader (Perkin Elmer, Envision), and a 50 μl solution of acetylcholine chloride (Sigma A6625) was added to each well at a concentration of 112.92 nM (hM3) with a microplate reader sample injector. The luminescence was recorded over 20 seconds, and IC50 values were calculated and analyzed by Origin 7.5.

[2] = biological target: T2, human β2-adrenergic receptor (hβ2) (Homo sapiens, UniProt P07550); experiment: Agonist activity on human β2-adrenergic receptor (LANCE Ultra cAMP Assay, CHO cells); type: cell-based
T2 construct: host or cells: CHO cells
Protocol: The agonist activity of the compounds of the Examples on the human adrenergic receptor was measured by the LANCE Ultra cAMP Assay.
CHO cells (PerkinElmer, ES-034-AF) that stably express human adrenergic receptor (hβ2) were cultured at 37° C., 5% CO2 in MEM-alpha media (Invitrogen 12561-056) containing 10% fetal bovine serum (FBS) (Gibico 10099-141) and 250 μg/ml Zeocin (InvivoGen ant-zn-5p), until a confluency of 90% to 100% was reached. Then the agonism on cAMP was tested by using a LANCE Ultra cAMP Assay kit (PerkinElmer TRF0263). Cells were separated with PBS/5 mM EDTA, collected by centrifugation, re-suspended in Stimulation Buffer (1×HBSS, 5 mM HEPES, 0.5 mM IBMX, 0.1% BSA, pH7.4), and adjusted to a cell concentration of 6×10^5 cells/ml. The compounds of the Examples were formulated with DMSO into 10 mM stock solutions, diluted in series with Stimulation Buffer, and added to a 384-well plate at 5 μl/well. 5 μl cell suspension was further added to each well (3,000 cells/well), incubated for 30 min at room temperature, then 5 μl of a 4×Eu-cAMP trace working solution was added to each well, and then 5 μl of a 4× Ulight-anti-cAMP working solution was added to each well, followed by incubation at room temperature for 1 hour. The 384-well plate was detected for TR-FRET with a microplate reader (Perkin Elmer, Envision), and EC50 values were calculated and analyzed by Origin 7.5.

T2 sequence (P07550 whole entry): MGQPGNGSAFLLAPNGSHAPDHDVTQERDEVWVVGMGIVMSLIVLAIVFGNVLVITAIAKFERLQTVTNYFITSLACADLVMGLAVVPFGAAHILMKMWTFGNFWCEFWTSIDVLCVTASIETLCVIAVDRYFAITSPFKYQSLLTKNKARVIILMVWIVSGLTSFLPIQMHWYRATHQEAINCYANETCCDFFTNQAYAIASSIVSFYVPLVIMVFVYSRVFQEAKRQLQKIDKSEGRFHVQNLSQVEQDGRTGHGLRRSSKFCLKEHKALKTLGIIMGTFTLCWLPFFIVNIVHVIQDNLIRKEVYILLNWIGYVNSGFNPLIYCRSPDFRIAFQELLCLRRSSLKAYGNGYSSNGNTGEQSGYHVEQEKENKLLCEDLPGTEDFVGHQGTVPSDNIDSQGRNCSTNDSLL
T1 sequence (P20309 whole entry): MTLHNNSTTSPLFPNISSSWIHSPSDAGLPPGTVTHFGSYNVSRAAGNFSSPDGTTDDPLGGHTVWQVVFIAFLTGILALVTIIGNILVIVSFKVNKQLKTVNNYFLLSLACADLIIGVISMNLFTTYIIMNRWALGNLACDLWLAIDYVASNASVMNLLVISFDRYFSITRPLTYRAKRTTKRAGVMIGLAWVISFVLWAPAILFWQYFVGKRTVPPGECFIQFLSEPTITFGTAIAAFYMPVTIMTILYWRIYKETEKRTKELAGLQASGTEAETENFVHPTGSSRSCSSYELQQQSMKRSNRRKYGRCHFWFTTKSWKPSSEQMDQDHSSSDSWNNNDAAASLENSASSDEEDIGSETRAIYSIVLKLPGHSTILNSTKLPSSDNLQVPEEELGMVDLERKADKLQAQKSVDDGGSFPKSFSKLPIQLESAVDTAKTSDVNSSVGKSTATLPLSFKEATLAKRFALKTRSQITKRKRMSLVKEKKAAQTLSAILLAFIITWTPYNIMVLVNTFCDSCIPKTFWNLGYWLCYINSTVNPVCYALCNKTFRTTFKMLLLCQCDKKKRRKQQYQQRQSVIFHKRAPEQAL

SMILES	pIC50 [1]	pEC50 [2]
O=C(OC1CC2(CCN(CCCn3nnc4cc(CNC[C@H](O)c5ccc(O)c6[nH]c(=O)ccc56)ccc43)CC2)C1)C(O)(c1ccccc1)C1CCCC1 (single isomer, unassigned) [Isomer 1 of Compound 4]	8.63	–
O=C(OC1CC2(CCN(CCCn3nnc4cc(CNC[C@H](O)c5ccc(O)c6[nH]c(=O)ccc56)ccc43)CC2)C1)C(O)(c1cccs1)C1CCCC1 (single isomer, unassigned) [Isomer 1 of Compound 9, ditrifluoroacetic acid]	8.61	–
O=C(OC1CC2(CCN(CCCn3nnc4cc(CNC[C@H](O)c5ccc(O)c6[nH]c(=O)ccc56)ccc43)CC2)C1)C(O)(c1ccccc1)C1CCCC1 (single isomer, unassigned) [Isomer 2 of Compound 4]	8.75	–
O=C(OC1CC2(CCN(CCCn3nnc4cc(CNC[C@H](O)c5ccc(O)c6[nH]c(=O)ccc56)ccc43)CC2)C1)C(O)(c1cccs1)C1CCCC1 (single isomer, unassigned) [Isomer 2 of Compound 9, ditrifluoroacetic acid]	8.56	–
O=C(OC1CC2(CCN(CCCn3nnc4cc(CNC[C@H](O)c5ccc(O)c6[nH]c(=O)ccc56)ccc43)CC2)C1)C(O)(c1cccs1)c1cccs1 [Compound 1, [7-[3-[5-[[[(2R)-2-hydroxy-2-(8-hydroxy-2-oxo-1H-quinolin-5-yl)ethyl]amino]methyl]benzotriazol-1-yl]propyl]-7-azaspiro[3.5]nonan-2-yl] 2-hydroxy-2,2-bis(2-thienyl)acetate]	9.37	8.35
O=C1COc2c([C@@H](O)CNCc3ccc4c(c3)nnn4CCCN3CCC4(CC3)CC(OC(=O)C(O)(c3cccs3)c3cccs3)C4)ccc(O)c2N1 [Compound 2, [7-[3-[5-[[[(2R)-2-hydroxy-2-(5-hydroxy-3-oxo-4H-1,4-benzoxazin-8-yl)ethyl]amino]methyl]benzotriazol-1-yl]propyl]-7-azaspiro[3.5]nonan-2-yl] 2-hydroxy-2,2-bis(2-thienyl)acetate; ditrifluoroacetic acid]	9.23	8.89
O=CNc1cc([C@@H](O)CNCc2ccc3c(c2)nnn3CCCN2CCC3(CC2)CC(OC(=O)C(O)(c2cccs2)c2cccs2)C3)ccc1O [Compound 3, [7-[3-[5-[[[(2R)-2-(3-formamido-4-hydroxy-phenyl)-2-hydroxy-ethyl]amino]methyl]benzotriazol-1-yl]propyl]-7-azaspiro[3.5]nonan-2-yl] 2-hydroxy-2,2-bis(2-thienyl)acetate; ditrifluoroacetic acid]	9.66	–
O=C(OC1CC2(CCN(CCCn3nnc4cc(CNC[C@H](O)c5ccc(O)c6[nH]c(=O)ccc56)ccc43)CC2)C1)C(O)(c1ccccc1)C1CCCC1 (stereo partly drawn) [Compound 4, [7-[3-[5-[[[(2R)-2-hydroxy-2-(8-hydroxy-2-oxo-1H-quinolin-5-yl)ethyl]amino]methyl]benzotriazol-1-yl]propyl]-7-azaspiro[3.5]nonan-2-yl] 2-cyclopentyl-2-hydroxy-2-phenyl-acetate; ditrifluoroacetic acid]	8.61	–
O=C(OC1CC2(CCN(CCCn3c(=O)sc4cc(CNC[C@H](O)c5ccc(O)c6[nH]c(=O)ccc56)ccc43)CC2)C1)C(O)(c1cccs1)c1cccs1 [Compound 7, [7-[3-[6-[[[(2R)-2-hydroxy-2-(8-hydroxy-2-oxo-1H-quinolin-5-yl)ethyl]amino]methyl]-2-oxo-1,3-benzothiazol-3-yl]propyl]-7-azaspiro[3.5]nonan-2-yl] 2-hydroxy-2,2-bis(2-thienyl)acetate; ditrifluoroacetic acid]	8.89	8.40
O=C(OC1CC2(CCN(CCCn3c(=O)oc4cc(CNC[C@H](O)c5ccc(O)c6[nH]c(=O)ccc56)ccc43)CC2)C1)C(O)(c1cccs1)c1cccs1 [Compound 8, [7-[3-[6-[[[(2R)-2-hydroxy-2-(8-hydroxy-2-oxo-1H-quinolin-5-yl)ethyl]amino]methyl]-2-oxo-1,3-benzoxazol-3-yl]propyl]-7-azaspiro[3.5]nonan-2-yl] 2-hydroxy-2,2-bis(2-thienyl)acetate; ditrifluoroacetic acid]	9.19	8.21
CN(CCCn1nnc2cc(CNC[C@H](O)c3ccc(O)c4[nH]c(=O)ccc34)ccc21)C(=O)CCN1CCC2(CC1)CC(OC(=O)C(O)(c1cccs1)c1cccs1)C2 [Compound 11, [7-[3-[3-[5-[[[(2R)-2-hydroxy-2-(8-hydroxy-2-oxo-1H-quinolin-5-yl)ethyl]amino]methyl]benzotriazol-1-yl]propyl-methyl-amino]-3-oxo-propyl]-7-azaspiro[3.5]nonan-2-yl] 2-hydroxy-2,2-bis(2-thienyl)acetate; ditrifluoroacetic acid]	9.34	–
O=C(OC1CC2(CCN(CCCn3nnc4cc(CNC[C@H](O)c5ccc(O)c6[nH]c(=O)sc56)ccc43)CC2)C1)C(O)(c1cccs1)c1cccs1 [Compound 12, [7-[3-[5-[[[(2R)-2-hydroxy-2-(4-hydroxy-2-oxo-3H-1,3-benzothiazol-7-yl)ethyl]amino]methyl]benzotriazol-1-yl]propyl]-7-azaspiro[3.5]nonan-2-yl] 2-hydroxy-2,2-bis(2-thienyl)acetate; ditrifluoroacetic acid]	9.28	9.33
O=C(OC1CC2(CCN(CCCn3nnc4cc(CNC[C@H](O)c5ccc(O)c(CO)c5)ccc43)CC2)C1)C(O)(c1cccs1)c1cccs1 [Compound 13, [7-[3-[5-[[[(2R)-2-hydroxy-2-[4-hydroxy-3-(hydroxymethyl)phenyl]ethyl]amino]methyl]benzotriazol-1-yl]propyl]-7-azaspiro[3.5]nonan-2-yl] 2-hydroxy-2,2-bis(2-thienyl)acetate; ditrifluoroacetic acid]	9.51	–
